Target: Pin1 (murine embryonic fibroblasts) (Mus musculus, UniProt Q9QUR7)
Test: EGCG-Sepharose pull-down from MEF lysates
Assay type: cell-based

Sequence of Pin1 (murine embryonic fibroblasts) (Q9QUR7 whole entry): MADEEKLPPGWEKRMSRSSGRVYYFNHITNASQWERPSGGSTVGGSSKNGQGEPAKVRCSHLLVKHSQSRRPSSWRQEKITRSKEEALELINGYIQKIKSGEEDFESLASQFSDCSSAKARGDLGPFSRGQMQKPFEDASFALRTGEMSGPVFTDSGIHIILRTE

Ki: 45 µM
Compound: O=C(O[C@@H]1Cc2c(O)cc(O)cc2O[C@@H]1c1cc(O)c(O)c(O)c1)c1cc(O)c(O)c(O)c1 [EGCG, epigallocatechin-3-gallate]

From paper PMC3244823 (2011)
